# Like-named read-outs stand apart in the source and are kept apart here.
# Assays:
# [1] = test system: Arabidopsis thaliana plants; type: in vivo; conditions: after 10-20 days
# Method: Plant Growth: Arabidopsis seeds were sown in a solid germination media containing MS salts (Sigma Chemical, St. Louis, Mo.), 2% sucrose, 0.8% agar, and vitamins (Valvekens, D. et al., 1992, Proc. Natl. Acad. Sci. USA 85:5536-5540). For selection assays, one of the following, or a combination of both, Was added to media (cooled to less than 50° C. before adding) immediately prior to pouring into plates: cycloheximide at a final concentration of 500 ng/ml; α,β-methyleneadenosine 5′-diphosphate at a final concentration of 1 mM. Plant growth was measured by germination percentage after 10-20 days.
# All other materials and methods were discussed above in Example 2.
# [2] = test system: Saccharomyces cerevisiae INVSC1 and YMR4; assay: Yeast growth selection assay on plates and in liquid media (turbidity OD600); type: cell-based; conditions: cycloheximide 500 ng/ml
# Text: Expression of AtPGP-1 in yeast: The AtPGP-1 cDNA (Arabidopsis thaliana MDR gene, accession #X61370) was subcloned into pVT101 downstream of the ADH promoter to create the AtPGP-1/pVT101 construct. AtPGP-1/pVT101 and pVT101 were transformed into Saccharomyces cerevisiae INVSC1 (genotype: MATα, his3-Δ1, leu2, trp1-289, ura3-52) and YMR4 (genotype: MATαhis3-11,15, leu2-3, 112ura3Δ5, can Res pho5, 3::ura3Δ1) by a PEG lithium acetate procedure (Eble, R., 1992, Biotechniques 13:18-20) and selected on uracil dropout medium.
# Yeast Growth: Yeast were grown at 30° C. under conditions of constant selection for uracil auxotrophy. YNB (Bio101, Vista, Calif.) supplemented with CSM (uracil dropout) and 2% glucose was used to grow strains having pVT101 constructs. Cycloheximide (Sigma Chemical, St. Louis, Mo.) was added to liquid media or spread on solid media to achieve a final concentration of 500 ng/ml. Nigericin (Sigma Chemical, St. Louis, Mo.) was added to liquid media or spread on solid media to achieve a final concentration of 25 μg/ml. Yeast strains used in cycloheximide selection assays were always propagated in the presence of the cycloheximide on plates and then streaked onto new plates containing drug or no drug, such that induced resistance existed in each strain at the time of the start of the assay. For selection assays on plates, single colonies were streaked; for selection in liquid media 0.01 ml of saturated culture was added to fresh media containing the drug. The plates shown in figures were grown for 3-5 days before photographs were taken. Yeast selection assays in liquid media were quantitated by turbidity as measured by absorbance at OD600.
# [3] = test system: Arabidopsis thaliana plants; assay: Arabidopsis germination selection assay of transgenic plants (Example 2); type: in vivo; conditions: cycloheximide 250 ng/ml
# Text: Expression of apyrase and AtPGP-1 in plants: The expression of apyrase in plants is as described above in Example 1. Similar methods were employed to express AtPGP-1 in Arabidopsis thaliana plants with the following modifications. The AtPGP-1 coding region was subcloned into a pBIN vector lacking the GUS gene as described in Sidler, et al., 1998, The Plant Cell 10:1623-1636. This plasmid was then transformed into A. tumefaciens as described above, which was used to infect root calli to produce transgenic plants expressing AtPGP-1.
# Plant growth: Arabidopsis thaliana seeds were sown in a solid germination media containing MS salt, 2% sucrose, 0.8% agar, and vitamins (Valvekens, D. et al., […], Proc. Natl. Acad. Sci. USA 85:5536-5540. For selection assays, cycloheximide was spread on the media to achieve a final concentration of 250 ng/ml. Plant growth was measured by germination percentage after 6-30 days.
# [4] = test system: S. cerevisiae yeast cells; assay: Yeast growth in suspension with ATP and drug selection (turbidity); type: cell-based, Saccharomyces cerevisiae; conditions: 100 mM ATP, 48 hours
# Method: Cell lines: Cell lines were the same as those described above in Example 2 and 3. YMR4 MDR1 is the phosphatase mutant yeast strain overexpressing AtPGP-1; YMR4 pVT101 contains vector alone; INVSC MDR1 is the wild-type yeast strain overexpressing AtPGP-1; and INVSC pVT101 contains vector alone.
# Selection in drug: To create drug resistant yeast strains, all four cell lines were grown up in the presence of 500 ng/ml of cycloheximide, and transferred to other cycloheximide containing plates after a period of four to six days. This transfer of cell lines and subculturing continued such that the yeast cells grew in the presence of cycloheximide for a period of at least a month.
# Cells cultured in media alone: To create cell lines that had not been preselected for their ability to grow in drug, yeast strains were grown on plates containing YNB (Bio101, Vista, Calif.) without uracil (-URA) to maintain the presence of the vector (which supplies URA) without any drugs added.
# Growth of cells in suspension for ATP and drug selection experiments: Cells were transferred into 5 ml YNB-URA liquid media for turbidity measurements. All cell lines (both non-drug selected and drug-selected) were grown in media with the addition of either nothing, 500 ng/ml cycloheximide, 100 mM ATP, or 500 ng/ml cycloheximide and 100 mM ATP. Turbidity readings were taken after 48 hours.
# yeast mutant YMR4 = assay: Yeast growth in suspension, salvage pathway experiments (adenosine, phosphate); type: cell-based, Saccharomyces cerevisiae; conditions: 72 hours; for effect of addition to the media on resistance to cycloheximide: YMR4 cells, 3 mM adenosine, potassium phosphate; for effect of addition on growth in drug: cells overexpressing AtPGP-1 grown in cycloheximide
# Method: Growth of cell lines in suspension for salvage pathway experiments: All cell lines were grown in liquid media either containing drug (for the drug selected lines) or not containing drug (for the non-drug selected lines). When the cultures reached a turbidity of 1.00 as measured at a wavelength of 600 in a spectrophotometer (OD600=1.00), 10 μl of each culture was then removed and placed in either media with nothing added, 3 mM potassium phosphate; 3 mM adenosine; 9 mM potassium phosphate and 3 mM adenosine (for controls); potassium phosphate and cycloheximide; adenosine and cycloheximide; adenosine, cycloheximide, and potassium phosphate. Cell cultures were further grown for 72 hours, and their turbidity was determined by OD600 readings on a spectrophotometer.
# [5] = YMR4 ecto-phosphatase deficient mutant (vector alone), nigericin 25 μg/ml
# [6] = YMR4 expressing AtPGP-1, nigericin 25 μg/ml
compound,measurement,setting,value
C[C@@H]1C[C@@H]([C@H](O)CC2CC(=O)NC(=O)C2)C(=O)[C@@H](C)C1 [cycloheximide],germination rate,[1]; AtPGP-1 overexpressing (MDR OE) plants,50%
same,germination rate,[1]; wild-type plants,2%
same,effect of AtPGP-1 on growth in the presence of drug,[2]; INVSC1 wild-type yeast with AtPGP-1,did not have any effect
same,growth in the presence of drug,[2]; INVSC1 wild-type yeast,did grow
same,growth in the presence of drug,[2]; [5],did not grow
same,growth in the presence of drug,[2]; [6],enabled the yeast mutant to grow
same,resistance of plants to the drug (germination),[3]; plants over-expressing AtPGP-1,confer resistance
same,resistance of plants to the drug (germination),[3]; plants over-expressing apyrase,conference of resistance
CO[C@@H]1C[C@@H](C[C@H]2CC[C@H](C)[C@H]([C@@H](C)C(=O)O)O2)O[C@]2(O[C@](C)([C@H]3CC[C@@](C)([C@@H]4O[C@@H]([C@H]5O[C@@](O)(CO)[C@H](C)C[C@@H]5C)C[C@@H]4C)O3)C[C@H]2C)[C@@H]1C [nigericin],growth in the presence of drug,[2]; [5],reduced growth
same,growth in the presence of drug,[2]; [6],The same result was obtained
Nc1ncnc2c1ncn2[C@@H]1O[C@H](COP(=O)(O)OP(=O)(O)OP(=O)(O)O)[C@@H](O)[C@H]1O [ATP],growth in high levels of ATP,[4]; cells not previously selected in drug,able to grow
same,growth in high levels of ATP,"[4]; cells previously selected in cycloheximide, not overexpressing AtPGP-1",not able to grow
"O=P(O)(O)O [phosphate, potassium phosphate]",effect of addition to the media on resistance to cycloheximide,yeast mutant YMR4,did not enhance resistance
same,effect of addition on growth in drug,yeast mutant YMR4,slightly inhibitory
"Nc1ncnc2c1ncn2[C@@H]1O[C@H](COP(=O)(O)CP(=O)(O)O)[C@@H](O)[C@H]1O [phosphatase inhibitor, α,β-methyleneadenosine 5′-diphosphate]",germination rate,"[1]; AtPGP-1 overexpressing (MDR OE) plants, cycloheximide 500 ng/ml, phosphatase inhibitor 1 mM",83%
same,germination rate,"[1]; wild-type plants, cycloheximide 500 ng/ml, phosphatase inhibitor 1 mM",90%
CC(C)=CCNc1ncnc2nc[nH]c12 [N6-(2-isopentenyl) adenine],resistance of plants to the drug (germination),[3]; plants over-expressing AtPGP-1,confer resistance
same,resistance of plants to the drug (germination),[3]; plants over-expressing apyrase,The same result was obtained
Nc1ncnc2c1ncn2[C@@H]1O[C@H](CO)[C@@H](O)[C@H]1O [adenosine],effect of addition to the media on resistance to cycloheximide,yeast mutant YMR4,did not enhance resistance
same,effect of addition on growth in drug,yeast mutant YMR4,slightly inhibitory

# — patent publication US6448472B1, “Genetic and epigenetic manipulation of ABC transporters and ectophosphatases for the conference of hormone and herbicide resistance” (Board of Regents, The University of Texas System, priority 1999, dated 2002)
